Data published in paper PMC2649009 (Journal of medicinal chemistry, 2008).

Target: T1, human GIVA cPLA2 (Homo sapiens, UniProt P47712)
T1 sequence (P47712 1-749): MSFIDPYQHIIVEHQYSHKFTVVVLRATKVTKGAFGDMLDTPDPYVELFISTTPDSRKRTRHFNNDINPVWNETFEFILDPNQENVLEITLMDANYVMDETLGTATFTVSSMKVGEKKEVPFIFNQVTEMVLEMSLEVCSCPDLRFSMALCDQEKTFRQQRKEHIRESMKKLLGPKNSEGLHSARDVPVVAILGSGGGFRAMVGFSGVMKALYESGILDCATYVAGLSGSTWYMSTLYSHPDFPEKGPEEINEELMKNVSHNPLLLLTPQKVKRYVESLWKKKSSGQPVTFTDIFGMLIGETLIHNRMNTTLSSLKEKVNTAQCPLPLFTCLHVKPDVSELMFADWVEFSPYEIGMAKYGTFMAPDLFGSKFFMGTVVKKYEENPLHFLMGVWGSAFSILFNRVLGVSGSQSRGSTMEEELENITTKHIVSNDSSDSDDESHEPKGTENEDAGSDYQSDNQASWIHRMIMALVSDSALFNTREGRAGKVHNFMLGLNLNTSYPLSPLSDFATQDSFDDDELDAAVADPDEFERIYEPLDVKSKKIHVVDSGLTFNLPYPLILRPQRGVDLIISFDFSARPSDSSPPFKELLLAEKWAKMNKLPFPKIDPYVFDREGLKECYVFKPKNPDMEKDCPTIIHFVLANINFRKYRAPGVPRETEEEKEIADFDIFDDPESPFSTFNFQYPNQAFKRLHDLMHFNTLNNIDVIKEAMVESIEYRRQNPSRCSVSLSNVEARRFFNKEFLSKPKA
Assay: mixed micelle-based modified Dole assay, GIVA cPLA2 inhibition
Type: biochemical
Details: mole fraction of inhibitor in total substrate interface giving 50% inhibition

| SMILES | GIVA cPLA2 XI(50) [mole fraction] |
| --- | --- |
| CCCCCCCCCCCCCCCC(=O)C(F)(F)F [compound 6, palmitoyl trifluoromethyl ketone, reference compound] | 0.0223 |
| CCCCCCCCCCCCCCC(F)C(=O)C(F)(F)F (centres unmarked) [compound 26, 1,1,1,3-Tetrafluoro-heptadecan-2-one] | 0.0167 |
